Structures are written as SMILES. Where two headings read alike, the source gives them in different places.

What is called AUC(0-inf) is the area under the concentration-time curve extrapolated to infinity. Higher therefore signals more exposure. In general, AUC(0-t) refers to exposure summed from dosing to a finite time, without extrapolation to infinity. For orientation: Vd means the apparent volume that relates the amount in the body to the concentration in plasma or blood. Read a high Vd as extensive tissue distribution. By half-life is commonly meant the time in which the quantity being followed falls by half. In general, IC50 refers to the midpoint of a concentration-inhibition curve.

A short description of data set [1]: Plasma pharmacokinetics after single I.P./I.V. dose in male BALB/c mice (LC-MS/MS). The settings on record: for AUC(0-inf): AUC0-inf; for AUC(0-t): AUC0-t; for Vd: VdSS; for clearance: CL; for k el: Kel. As to the method: After dosing, blood samples were collected at different time points for each group. […] Three animals were used for each time point. Approximately 800 μL of blood was collected via orbital vein (a source of collecting sufficient volume of venous blood) from each anesthetized mouse by isoflurane, and 200 μL of blood was collected from the cannula implanted in the jugular vein. The catheter was implanted when the blood sample was collected at the first time point. Next, the blood was transferred to a prepared tube containing sodium heparin anticoagulant and mixed briefly by gentle inversion three to four times. The target and actual time of blood sampling were recorded relative to the time of dosing. Samples were placed on wet ice immediately after collection. Within 1 hour after collection, plasma was separated by centrifugation at 4,000 rpm for 10 minutes at 4 °C. The plasma was protected from light and stored at −80 °C until analyzed by liquid chromatography-mass spectrometry/mass spectrometry (LC-MS/MS) for quantification.
Using the data from the standards, calibration curves were generated for each analytical batch. Aliquots of 10.0 μL of samples, calibraton curve samples, and QC samples were supplemented with 100 μL of precipitant (a mixture of acetone and acetonitrile (30:70)). After vortexing for 3 min and centrifuging at 12,000 rpm for 3 min, 75.00 μL of the supernatant was transferred into a 96-well microplate with an equal volume of water. The 10 μL mixture solution was injected for LC-MS/MS analysis.
Data collection was performed using Analyst version 1.4 from Applied Biosystems. […] The data were also analyzed using Prism 5.0 software. Statistical significance was determined using independent two-tailed Student t-tests and one-way ANOVA for independent data. Differences of P < 0.05 were regarded as significant for all statistical analyses.

Data set [2] is described as follows: Plasma pharmacokinetics after single I.P./I.V. dose in male Sprague-Dawley rats (LC-MS/MS). The settings on record: for MRTIV / clearance / k el: SD rats; for clearance / k el / half-life: male, Sprague-Dawley, rat, plasma, iv, 1 mg/kg; for clearance: CL; for k el: Kel; for half-life: t1/2, SD rats.
A short description of the next data set: in vivo. Conditions: male, Sprague-Dawley, rat, iv; for AUC(0-inf): AUC0-inf; for AUC(0-t): AUC0-t.
The conditions of data set [3]: male, Sprague-Dawley, rat, in vivo, iv.
Another data set concerns the target T1, CYP2B6 (Homo sapiens, UniProt P20813).
T1 construct: from tissue; host or cells: human liver microsomes
T1 sequence (P20813 1-491): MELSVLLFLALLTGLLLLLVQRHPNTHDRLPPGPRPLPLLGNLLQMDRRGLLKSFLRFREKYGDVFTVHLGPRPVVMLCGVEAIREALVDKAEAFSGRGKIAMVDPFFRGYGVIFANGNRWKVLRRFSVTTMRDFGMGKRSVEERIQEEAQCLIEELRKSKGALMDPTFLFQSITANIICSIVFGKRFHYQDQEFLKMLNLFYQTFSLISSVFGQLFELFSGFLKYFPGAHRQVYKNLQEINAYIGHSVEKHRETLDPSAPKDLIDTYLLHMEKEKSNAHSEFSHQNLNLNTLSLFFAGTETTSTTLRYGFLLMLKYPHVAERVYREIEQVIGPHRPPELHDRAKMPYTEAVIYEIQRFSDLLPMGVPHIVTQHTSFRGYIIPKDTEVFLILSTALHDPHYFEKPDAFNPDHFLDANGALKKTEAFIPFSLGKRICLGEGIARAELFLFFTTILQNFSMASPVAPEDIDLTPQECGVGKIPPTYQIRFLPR
Kind of data set: HLM-LC-MS CYP450 inhibition assay, CYP2B6. It counts as in vitro ADME. The settings on record: substrate bupropion 70 μM, hydroxylation, read-out: Compound IC50. As to the method:
(§1) Compounds were tested in triplicate.

The target in another data set is T2, CYP2C19 (Homo sapiens, UniProt P33261).
T2 construct: from tissue; host or cells: human liver microsomes
T2 sequence (P33261 whole entry): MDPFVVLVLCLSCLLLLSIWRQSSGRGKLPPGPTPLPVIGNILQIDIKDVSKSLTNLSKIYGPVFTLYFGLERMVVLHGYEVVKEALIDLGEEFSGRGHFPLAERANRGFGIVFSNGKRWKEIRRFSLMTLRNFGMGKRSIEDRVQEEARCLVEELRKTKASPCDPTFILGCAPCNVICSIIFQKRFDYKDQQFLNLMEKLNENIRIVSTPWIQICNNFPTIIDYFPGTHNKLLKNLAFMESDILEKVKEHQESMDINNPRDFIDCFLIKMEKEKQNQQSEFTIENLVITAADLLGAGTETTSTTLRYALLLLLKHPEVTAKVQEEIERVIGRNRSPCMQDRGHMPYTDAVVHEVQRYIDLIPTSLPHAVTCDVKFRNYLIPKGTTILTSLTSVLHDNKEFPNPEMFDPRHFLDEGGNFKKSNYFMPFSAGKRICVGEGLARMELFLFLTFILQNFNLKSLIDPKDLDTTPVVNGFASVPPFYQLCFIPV
Kind of data set: HLM-LC-MS CYP450 inhibition assay, CYP2C19. It counts as in vitro ADME. The settings on record: substrate S-mephenytoin 35 μM, 4-hydroxylation, read-out: Compound IC50. The procedure:
as §1

The mark [4] stands for this setting: male, BALB/c, mouse, in vivo, iv, 2 mg/kg.
Where [5] appears, read: male, BALB/c, mouse, plasma, iv, 2 mg/kg, BALB/c mice, doxorubicin I.V. 2.00 mg/kg alone.
[6] abbreviates: male, BALB/c, mouse, plasma, iv, 2 mg/kg, BALB/c mice, doxorubicin I.V. 2.00 mg/kg combined with NSC23925b 2.50 mg/kg.
[7] abbreviates: doxorubicin I.V. 1.00 mg/kg alone.
Setting [8] is: doxorubicin I.V. 1.00 mg/kg combined with NSC23925b 2.50 mg/kg.
Where [9] appears, read: male, BALB/c, mouse, in vivo, iv, 5 mg/kg.

For `COc1cccc2c1C(=O)c1c(O)c3c(c(O)c1C2=O)C[C@@](O)(C(=O)CO)C[C@@H]3O[C@H]1C[C@H](N)[C@H](O)[C@H](C)O1` [Doxorubicin, reference compound], the MRTIV in data set [1] (BALB/c mice, doxorubicin I.V. 2.00 mg/kg alone) is on record as 14.6 ± 5.71 h; in data set [1] (BALB/c mice, doxorubicin I.V. 2.00 mg/kg combined with NSC23925b 2.50 mg/kg) it was 17.3 ± 4.17 h; in data set [2] (setting [7]) it was 11.1 ± 2.41 h; in data set [2] (setting [8]), 16.1 ± 0.771 h. The compound also returned an AUMC0-inf in data set [1] (setting [4]) of 4157 ± 2493 h·h·ng·mL^−1. Besides, the figures for the AUMC0-t in data set [1] (setting [4]) and in data set [3] (1 mg/kg) were 1470 ± 309 h·h·ng·mL^−1 and 446 ± 282 h·h·ng·mL^−1, respectively. The results for the AUC(0-inf) (in data set [1] (setting [4]); in “in vivo” (1 mg/kg)) were 272 ± 53.7 ng·h/mL and 117 ± 32.5 ng·h/mL, respectively. Besides, the AUC(0-t) in data set [1] (setting [4]) is 207 ± 9.76 ng·h/mL; in “in vivo” (1 mg/kg) it was 89.7 ± 35.6 ng·h/mL. Also, the Vd amounted to 105 ± 19.8 L/kg in data set [1] (setting [4]) and 97.1 ± 19.5 L/kg in the data set “in vivo” (1 mg/kg, VdSS). The clearance in data set [1] (setting [5]) stood at 126 ± 22.4 mL/min/kg; in data set [1] (setting [6]), 155 ± 19.2 mL/min/kg; in data set [2] (setting [7]), 151 ± 43.1 mL/min/kg; in data set [2] (setting [8]), 120 ± 7.57 mL/min/kg. The k el was 1.89e-05 s⁻¹ in data set [1] (setting [5]), 1.52e-05 s⁻¹ in data set [1] (setting [6]), 1.93e-05 s⁻¹ in data set [2] (setting [7]) and 1.35e-05 s⁻¹ in data set [2] (setting [8]). The half-life was 10.7 ± 3.29 h in data set [1] (male, BALB/c, mouse, plasma, iv, 2 mg/kg, t1/2, BALB/c mice, doxorubicin I.V. 2.00 mg/kg alone); 12.8 ± 1.91 h in data set [1] (male, BALB/c, mouse, plasma, iv, 2 mg/kg, t1/2, BALB/c mice, doxorubicin I.V. 2.00 mg/kg combined with NSC23925b 2.50 mg/kg); 10.5 ± 2.76 h in data set [2] (setting [7]); 14.3 ± 0.87 h in data set [2] (setting [8]).
In data set [1] (setting [9]), `CC(=O)O[C@H]1C(=O)[C@@]2(C)[C@H]([C@H](OC(=O)c3ccccc3)[C@]3(O)C[C@H](OC(=O)[C@H](O)[C@@H](NC(=O)c4ccccc4)c4ccccc4)C(C)=C1C3(C)C)[C@]1(OC(C)=O)CO[C@@H]1C[C@@H]2O` [Paclitaxel, reference compound] yielded an AUMC0-inf of 2911 ± 400 h·h·ng·mL^−1, an AUMC0-t of 2728 ± 356 h·h·ng·mL^−1, an MRTIV of 1.16 ± 0.147 h and a total exposure AUC(0-inf) of 2520 ± 244 ng·h/mL. In data set [1] (setting [9]), this compound had an AUC(0-t) of 2500 ± 238 ng·h/mL, a clearance of 33.2 ± 3.12 mL/min/kg, a k el of 0.000149 s⁻¹ and a Vd of 2.31 ± 0.428 L/kg. The half-life in data set [1] (male, BALB/c, mouse, in vivo, iv, 5 mg/kg, t1/2) was 1.33 ± 0.28 h. In the data set “in vivo” (5 mg/kg), this compound came in with an AUC(0-inf) of 4610 ± 517 ng·h/mL and an AUC(0-t) of 4200 ± 492 ng·h/mL. Also, the clearance in “in vivo” (5 mg/kg, CL) is 18.2 ± 1.93 mL/min/kg. In data set [3] (5 mg/kg), the AUMC0-inf was found to be 29892 ± 4245 h·h·ng·mL^−1, the AUMC0-t is 13231 ± 1265 h·h·ng·mL^−1, the Kel came to 0.0602 ± 0.0042 h⁻¹ and the MRTIV came to 6.50 ± 0.853 h. This compound also returned a VdSS in data set [3] (5 mg/kg) of 7.13 ± 1.34 L/kg.
Consider `COC(=O)[C@H](c1ccccc1Cl)N1CCc2sccc2C1` [Clopidogrel, reference compound], for which the IC50 at CYP2B6 was 0.914 µM.
In the case of `COc1ccc2[nH]c([S+]([O-])Cc3ncc(C)c(OC)c3C)nc2c1` (centres unmarked) [Omeprazole, reference compound], the IC50 at CYP2C19 stood at 4.08 µM.

(Values after PMC4860631, “Pharmacokinetics and tolerability of NSC23925b, a novel P-glycoprotein inhibitor: preclinical study in mice and rats” (Scientific Reports, 2016).)
